Laboratory results from patent US10934285B2, “Compounds and compositions for inhibiting the activity of SHP2” (Novartis AG, priority 2016, dated 2021).

Target: SHP2 (Homo sapiens (Human), UniProt Q06124)
Assay: SHP2 Allosteric Inhibition Assay
Type: biochemical
Conditions: 0.5 nM SHP2 activated with 0.5 μM peptide IRS1_pY1172(dPEG8)pY1222; surrogate substrate DiFMUP; prompt fluorescence
Method in brief: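 DiFMUP surrogate substrate read by prompt fluorescence, added after 30-60 min preincubation at 25° C and reacted 30 min at 25° C. SHP2 is activated through bis-tyrosyl-phosphorylated peptide binding to its SH2 domains. IC50 from normalized regression curve fitting with control-based normalization.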

IC50 [nM]	SMILES
80	Cc1oc(=O)oc1COC(=O)NCC1(C)CCN(c2cnc(Sc3cccc(NC(=O)c4c(O)nc5ccccn5c4=O)c3Cl)c(N)n2)CC1 [Example 25, (5-Methyl-2-oxo-1,3-dioxol-4-yl)methyl ((1-(6-amino-5-((2-chloro-3-(2-hydroxy-4-oxo-4H-pyrido[1,2-a]pyrimidine-3-carboxamido)phenyl)thio)pyrazin-2-yl)-4-methylpiperidin-4-yl)methyl)carbamate]
14	CC1(N)CCN(c2cnc(Sc3cccc(NC(=O)c4c(O)nc5n(c4=O)CCCC5)c3Cl)cn2)CC1 [Example 44, N-(3-((5-(4-amino-4-methylpiperidin-1-yl)pyrazin-2-yl)thio)-2-chlorophenyl)-2-hydroxy-4-oxo-6,7,8,9-tetrahydro-4H-pyrido[1,2-a]pyrimidine-3-carboxamide]
7	CC1(CN)CCN(c2cnc(Sc3cccc(NC(=O)c4c(O)nc5n(c4=O)CCNC5)c3Cl)c(N)n2)CC1 [Example 9, N-(3-((3-amino-5-(4-(aminomethyl)-4-methylpiperidin-1-yl)pyrazin-2-yl)thio)-2-chlorophenyl)-2-hydroxy-4-oxo-6,7,8,9-tetrahydro-4H-pyrazino[1,2-a]pyrimidine-3-carboxamide]
